These results are taken from US12030877B2, “Prostaglandin E synthase inhibitors and methods for utilizing the same” (University of Kentucky Research Foundation, priority 2016, dated 2024).

As a reminder, the IC50 is the concentration at which inhibition is half-maximal. As usually defined, the inhibition is the change of the read-out against control, counted positive when it falls.

Read-outs that look alike come from different tables or passages of the source.

The target in assay [1] is T1, mPGES-1 (Homo sapiens, UniProt O14684).
T1 sequence (O14684 1-152): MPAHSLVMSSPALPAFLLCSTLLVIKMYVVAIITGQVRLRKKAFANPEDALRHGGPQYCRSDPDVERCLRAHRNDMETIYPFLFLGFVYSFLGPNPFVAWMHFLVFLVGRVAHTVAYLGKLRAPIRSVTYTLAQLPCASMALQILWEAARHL
To be noted: background, cited from earlier work.

A further assay concerns the target T2, mPGES-1 Mouse enzyme (Mus musculus, UniProt Q9JM51).
T2 construct: made in house; host or cells: FreeStyle 293-F cells, crude microsomal preparation
T2 sequence (Q9JM51 1-153): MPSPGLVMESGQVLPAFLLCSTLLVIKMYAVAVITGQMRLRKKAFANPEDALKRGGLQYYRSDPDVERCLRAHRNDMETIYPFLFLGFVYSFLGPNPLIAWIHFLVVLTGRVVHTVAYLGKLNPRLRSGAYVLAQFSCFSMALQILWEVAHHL
The assay is described as follows: mPGES-1 enzyme activity assay (PGE2 enzyme immunoassay), mouse enzyme. The conditions noted are these: for inhibition at 10 µM: compound at a concentration of 10 μM, read-out: % inhibition of the compound against mPGES-1, Mouse enzyme; for IC50: recombinant microsomal enzyme, means ± SD, triplicate. The class given is biochemical. Summed up:
(§1)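 Crude microsomal enzyme from transfected FreeStyle 293-F cells, preincubated 15 min at room temperature with compound in phosphate pH 7.2 with GSH. Reaction started with 1 μM PGH2, stopped after 30 s with SnCl2; non-enzymatic background without enzyme. PGE2 by enzyme immunoassay; IC50 computed.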

Assay [2] has as its target T1, mPGES-1. The assay is described as follows: mPGES-1 enzyme activity assay (PGE2 enzyme immunoassay), human enzyme. Type of assay: biochemical. On the set-up: made in house; host or cells: FreeStyle 293-F cells, crude microsomal preparation. The conditions noted are these: recombinant microsomal enzyme, means ± SD, triplicate. Summed up: as §1
The mark [3] stands for this setting: IC50 against mPGES-1, Human enzyme.
The mark [4] stands for this setting: read-out: IC50 against mPGES-1, Mouse enzyme.
The mark [5] stands for this setting: read-out: IC50 against mPGES-1, Human enzyme.

In the case of `CSc1ccc(/C=C2/C(C)=C(CC(=O)O)c3cc(F)ccc32)cc1`, the 50% inhibitory concentration (IC50) on mPGES-1 [1] (literature refs 20-22, read-out: IC50 for inhibition of mPGES-1) is 80 µM. On to `CCCCC/C=C\C\C=C/C=C/C=C/[C@@H](SC[C@H](NC(=O)CC[C@H](N)C(=O)O)C(=O)NCC(=O)O)[C@@H](O)CCCC(=O)O` [Leukotriene C4], for which the “IC50 for inhibition of mPGES-1 (in words)” value at mPGES-1 [1] (literature ref 20, probably competing with glutathione) is on record as “micromolar”. On to `CCCCCCCCCCOc1ccc(-c2nn(-c3ccccc3)cc2C=C2C(=O)NC(=S)NC2=O)cc1` [VI-16], for which the inhibition at 10 µM at mPGES-1 Mouse enzyme worked out at 50%. The IC50 at mPGES-1 [2] (setting [3]) turned out to be 0.188 ± 0.031 µM.

In the case of `O=C(O)CN1C(=O)S/C(=C2\C(=O)N(CCCCC3CCCCC3)c3ccccc32)C1=O` [II-09], the IC50 was determined as 0.947 ± 0.183 µM on mPGES-1 Mouse enzyme (setting [4]) and 0.499 ± 0.108 µM on mPGES-1 [2] (setting [5]). In the case of `O=C1NC(=O)C(=Cc2ccc(OCCCCc3ccccc3)c(Cl)c2)C(=O)N1` [Compound I-33], the half-inhibitory concentration (IC50) at mPGES-1 Mouse enzyme (IC50 against mPGES-1, Mouse enzyme) is 2.79 ± 0.525 µM; at mPGES-1 [2] (setting [3]) it was 0.073 ± 0.01 µM. As to `O=C(O)CN1C(=O)S/C(=C2\C(=O)N(CCCC3CCCCC3)c3ccc(-c4ccccc4)cc32)C1=O` [II-25], the IC50 at mPGES-1 Mouse enzyme (setting [4]) stood at 1.22 ± 0.43 µM; on mPGES-1 [2] (setting [5]), 0.016 ± 0.004 µM. With `O=C1NC(=S)S/C1=C1\C(=O)N(CCCC2CCCCC2)c2ccccc21` [II-29], on mPGES-1 Mouse enzyme, the inhibition at 10 µM turned out to be 29%. On mPGES-1 [2] (setting [5]), the IC50 is 1.26 ± 0.335 µM.
